Experimental data reported in ChEMBL document CHEMBL4840322, “Synthesis and biological evaluation of novel coumarin derivatives in rhabdoviral clearance” (Eur J Med Chem, 2021).
pIC50: −log10 of the molar value. The source made the active and inactive calls. No cut-off for these calls is given here.

Key:
[1] = tested on: Infectious hematopoietic necrosis virus; experiment: Inhibition of Infectious hematopoietic necrosis virus glycoprotein G assessed as antiviral activity at 25 uM measured by RT-qPCR method relative to control
[2] = Induction of apoptosis in Fathead minnow EPC cells assessed as necrotic cells measured after 72 hrs by Annexin V/PI staining based flowcytometry method (reference value: 0.29%); type: functional, Pimephales promelas
[3] = tested on: Micropterus salmoides rhabdovirus; experiment: Antiviral activity against micropterus salmoides rhabd-ovirus infected in Fat head minnow EPC cells assessed as inhibition of N protein gene expression at 0.1 to 100 uM by RT-qPCR method relative to control; type: functional; set-up: scale not given: the % may be the effect or the level left; settings: dose 0.1-100 µM
[4] = tested on: Infectious hematopoietic necrosis virus; experiment: Antiviral activity against Infectious hematopoietic necrosis virus infected in Fathead minnow EPC cells assessed as inhibition of G protein expression measured after 72 hrs by RT-qPCR method; type: functional, organism-based
[5] = tested on: Infectious hematopoietic necrosis virus; experiment: Antiviral activity against Infectious hematopoietic necrosis virus infected in Fathead minnow EPC cells assessed as decrease in virus-induced apoptosis by measuring caspase-9 activity at 25 uM measured after 72 hrs by Caspase activity assay relative to control; type: functional; set-up: scale not given: the % may be the effect or the level left
[6] = tested on: Micropterus salmoides rhabdovirus; experiment: Antiviral activity against micropterus salmoides rhabdo-virus infected in Grass carp GCO cells assessed as reduction of viral titre value measured after 48 to 96 hrs; type: functional, organism-based; settings: time 48-96 hrs
[7] = tested on: Infectious hematopoietic necrosis virus; experiment: Antiviral activity against Infectious hematopoietic necrosis virus infected in Fathead minnow EPC cells assessed as decrease in virus-induced apoptosis by measuring formation of few apoptotic bodies in cells at 100 uM measured after 72 hrs by Flowcytometry assay; type: functional, organism-based
[8] = tested on: Infectious hematopoietic necrosis virus; experiment: Antiviral activity against Infectious hematopoietic necrosis virus infected in Fathead minnow EPC cells assessed as inhibition of polymerase protein gene expression at 0.1 to 100 uM measured after 72 hrs by RT-qPCR method relative to control; type: functional; set-up: scale not given: the % may be the effect or the level left; settings: dose 0.1-100 µM
[9] = Cytotoxicity against Fathead minnow EPC cells at 25 uM; type: cell-based; settings: pimephales promelas
Sprivivirus cyprinus [10] = experiment: Antiviral activity against spring viremia of carp virus infected in Fat head minnow EPC cells assessed as inhibition of N protein gene expression at 0.1 to 100 uM by RT-qPCR method relative to control; type: functional; set-up: scale not given: the % may be the effect or the level left; settings: dose 0.1-100 µM
[11] = tested on: Infectious hematopoietic necrosis virus; experiment: Antiviral activity against Infectious hematopoietic necrosis virus infected in Fathead minnow EPC cells assessed as inhibition of phospho protein gene expression at 0.1 to 100 uM measured after 72 hrs by RT-qPCR method relative to control; type: functional; set-up: scale not given: the % may be the effect or the level left; settings: dose 0.1-100 µM
[12] = tested on: Infectious hematopoietic necrosis virus; experiment: Antiviral activity against Infectious hematopoietic necrosis virus infected in Fathead minnow EPC cells assessed as decrease in virus-induced apoptosis by measuring late apoptotic cells measured after 72 hrs by Annexin V/PI staining based flowcytometry method (reference value: 1.95%); type: functional; set-up: scale not given: the % may be the effect or the level left
[13] = tested on: Infectious hematopoietic necrosis virus; experiment: Antiviral activity against Infectious hematopoietic necrosis virus infected in Rainbow trout fish assessed as decrease of viral proliferation in fish brain ip measured after 4 days; type: functional, organism-based; settings: time 4.0 day
Sprivivirus cyprinus [14] = experiment: Antiviral activity against spring viremia of carp virus infected in Fat head minnow EPC cells assessed as inhibition of N protein gene expression by RT-qPCR method relative to control; type: functional, organism-based
[15] = tested on: Micropterus salmoides rhabdovirus; experiment: Antiviral activity against micropterus salmoides rhabdo-virus infected in Fat head minnow EPC cells assessed as inhibition of N protein gene expression by RT-qPCR method relative to control; type: functional, organism-based
[16] = tested on: Infectious hematopoietic necrosis virus; experiment: Antiviral activity against Infectious hematopoietic necrosis virus infected in Fathead minnow EPC cells assessed as inhibition of virus-cell recognition at 25 uM measured after 30 mins by RT-qPCR method; type: functional, organism-based
[17] = tested on: Infectious hematopoietic necrosis virus; experiment: Antiviral activity against Infectious hematopoietic necrosis virus infected in Fathead minnow EPC cells assessed as decrease in virus-induced apoptosis by measuring early apoptotic cells measured after 72 hrs by Annexin V/PI staining based flowcytometry method (reference value: 3.8%); type: functional; set-up: scale not given: the % may be the effect or the level left
[18] = tested on: Infectious hematopoietic necrosis virus; experiment: Antiviral activity against Infectious hematopoietic necrosis virus infected in Fathead minnow EPC cells at 25 uM preincubated for 1 to 4 hrs followed by compound washout and infected to EPC cells and measured after 72 hrs by RT-qPCR assay; type: functional, organism-based; settings: time 1-4 hrs
[19] = tested on: Infectious hematopoietic necrosis virus; experiment: Antiviral activity against Infectious hematopoietic necrosis virus infected in Fathead minnow EPC cells assessed as suppression of virus-induced cytopathic effect at 100 uM; type: functional, organism-based
[20] = tested on: Infectious hematopoietic necrosis virus; experiment: Antiviral activity against Infectious hematopoietic necrosis virus infected in Fathead minnow EPC cells assessed as decrease in virus-induced apoptosis by measuring caspase-8 activity at 25 uM measured after 72 hrs by Caspase activity assay relative to control; type: functional; set-up: scale not given: the % may be the effect or the level left
[21] = tested on: Infectious hematopoietic necrosis virus; experiment: Antiviral activity against Infectious hematopoietic necrosis virus infected in Rainbow trout fish assessed as decrease of viral proliferation in fish spleen ip measured after 4 days; type: functional, organism-based; settings: time 4.0 day
[22] = Cytotoxicity against Grass carp GCO cells at 25 uM; type: cell-based; settings: ctenopharyngodon idellus
[23] = tested on: Infectious hematopoietic necrosis virus; experiment: Antiviral activity against Infectious hematopoietic necrosis virus infected in Fathead minnow EPC cells assessed as decrease in virus-induced apoptosis by measuring necrotic cells measured after 72 hrs by Annexin V/PI staining based flowcytometry method (reference value: 0.29%); type: functional; set-up: scale not given: the % may be the effect or the level left
[24] = tested on: Infectious hematopoietic necrosis virus; experiment: Antiviral activity against Infectious hematopoietic necrosis virus infected in Fathead minnow EPC cells assessed as decrease in virus-induced apoptosis by measuring viable cells measured after 72 hrs by Annexin V/PI staining based flowcytometry method (reference value: 94%); type: functional
[25] = tested on: Infectious hematopoietic necrosis virus; experiment: Antiviral activity against Infectious hematopoietic necrosis virus infected in Fathead minnow EPC cells assessed as decrease in virus-induced apoptosis by measuring caspase-3 activity at 25 uM measured after 72 hrs by Caspase activity assay relative to control; type: functional; set-up: scale not given: the % may be the effect or the level left
[26] = tested on: Infectious hematopoietic necrosis virus; experiment: Antiviral activity against Infectious hematopoietic necrosis virus infected in Rainbow trout fish assessed as decrease of viral proliferation in fish kidney ip measured after 4 days; type: functional, organism-based; settings: time 4.0 day
[27] = Induction of apoptosis in Fathead minnow EPC cells assessed as late apoptotic cells measured after 72 hrs by Annexin V/PI staining based flowcytometry method (reference value: 1.95%); type: functional, Pimephales promelas
[28] = tested on: Infectious hematopoietic necrosis virus; experiment: Antiviral activity against Infectious hematopoietic necrosis virus infected in Fathead minnow EPC cells assessed as inhibition of matrix protein gene expression at 0.1 to 100 uM measured after 72 hrs by RT-qPCR method relative to control; type: functional; set-up: scale not given: the % may be the effect or the level left; settings: dose 0.1-100 µM
[29] = Induction of apoptosis in Fathead minnow EPC cells assessed as early apoptotic cells measured after 72 hrs by Annexin V/PI staining based flowcytometry method (reference value: 3.8%); type: functional, Pimephales promelas
[30] = tested on: Infectious hematopoietic necrosis virus; experiment: Antiviral activity against Infectious hematopoietic necrosis virus infected in Fathead minnow EPC cells assessed as decrease in virus-induced apoptosis by measuring changes in cell morphology at 10 uM measured by ultrastructural analysis; type: functional, organism-based
[31] = tested on: Infectious hematopoietic necrosis virus; experiment: Antiviral activity against Infectious hematopoietic necrosis virus infected in Fathead minnow EPC cells assessed as reduction of virus titre values at 0.25 to 25 uM measured after 72 to 96 hrs; type: functional, organism-based; settings: dose 0.25-25 µM, time 72-96 hrs
[32] = tested on: Infectious hematopoietic necrosis virus; experiment: Antiviral activity against Infectious hematopoietic necrosis virus infected in Rainbow trout fish assessed as decrease of mortality rate ip measured after 4 days; type: functional, organism-based; settings: time 4.0 day
[33] = Induction of apoptosis in Fathead minnow EPC cells assessed as viable cells measured after 72 hrs by Annexin V/PI staining based flowcytometry method (reference value: 94%); type: functional, Pimephales promelas
[34] = tested on: Infectious hematopoietic necrosis virus; experiment: Antiviral activity against Infectious hematopoietic necrosis virus infected in Fathead minnow EPC cells assessed as inhibition of nucleoprotein gene expression at 0.1 to 100 uM measured after 72 hrs by RT-qPCR method relative to control; type: functional; set-up: scale not given: the % may be the effect or the level left; settings: dose 0.1-100 µM
Sprivivirus cyprinus [35] = experiment: Antiviral activity against spring viremia of carp virus infected in Fathead minnow EPC cells assessed as reduction of viral titre value measured after 48 to 96 hrs; type: functional, organism-based; settings: time 48-96 hrs
[36] = tested on: Infectious hematopoietic necrosis virus; experiment: Antiviral activity against Infectious hematopoietic necrosis virus infected in Fathead minnow EPC cells assessed as decrease in virus-induced apoptosis by measuring appearance of normal sized nuclei in cells at 100 uM measured after 72 hrs by Flowcytometry assay; type: functional, organism-based

Nc1ccccc1SCCCCCCOc1ccc2ccc(=O)oc2c1
inhibition [1]: 49.3%

CCCOc1ccc2ccc(=O)oc2c1
inhibition [1]: 5.73%

C=CCOc1ccc2ccc(=O)oc2c1
inhibition [1]: -5.86%

Cc1cn(CCCCCCOc2ccc3c(C)cc(=O)oc3c2)cn1
inhibition [1]: 65.1%

O=c1ccc2ccc(OCCCCCCn3cnc4ccccc43)cc2o1
Activity [2]: 0.4%
Activity [3]: 99.08%
pIC50 [4]: 5.53
Activity [5]: 50%
Activity [6]: Active
Activity [7]: Active
Activity [8]: >95%
Activity [9]: Non-Toxic
Activity (Sprivivirus cyprinus [10]): 97.86%
Activity [11]: >95%
Activity [12]: 2.55%
Activity [13]: Active
pIC50 (Sprivivirus cyprinus [14]): 5.77
pIC50 [15]: 5.67
Activity [16]: inactive
inhibition [1]: 99.2%
Activity [17]: 3.47%
Activity [18]: inactive
Activity [19]: Active
Activity [20]: 98%
Activity [21]: Active
Activity [22]: Non-Toxic
Activity [23]: 0.26%
Activity [24]: 93.7%
Activity [25]: 383%
Activity [26]: Active
Activity [27]: 2.2%
Activity [28]: >95%
Activity [29]: 2.35%
Activity [30]: Active
Activity [31]: Active
Activity [32]: Active
Activity [33]: 95.1%
Activity [34]: >95%
Activity (Sprivivirus cyprinus [35]): Active
Activity [36]: Active

CCCCOc1ccc2c(C)cc(=O)oc2c1
inhibition [1]: -4.37%

COc1cc(=O)oc2ccccc12
inhibition [1]: 19.5%

COc1ccc2ccc(=O)oc2c1
inhibition [1]: 10.8%

O=c1ccc2ccc(OCCCBr)cc2o1
inhibition [1]: -8.24%

C=C(C)COc1ccc2ccc(=O)oc2c1
inhibition [1]: 14%

O=c1ccc2ccc(OCCn3cnc4ccccc43)cc2o1
inhibition [1]: 5.58%

C=C(C)COc1cc(=O)oc2ccccc12
inhibition [1]: 9.47%

CCCOc1ccc2c(C)cc(=O)oc2c1
inhibition [1]: -1.75%

Cc1cc(=O)oc2cc(OCCCCCCn3ccnc3)ccc12
pIC50 [4]: 5.12
inhibition [1]: 82.1%

O=c1ccc2ccc(OCCCCCCN3CCCCC3)cc2o1
inhibition [1]: 5.32%

Cc1cc(=O)oc2cc(OCCCCCCn3cnc4ccccc43)ccc12
pIC50 [4]: 5.32
inhibition [1]: 94.1%

NC(=O)c1ncn([C@@H]2O[C@H](CO)[C@@H](O)[C@H]2O)n1
inhibition [1]: 99.1%

CCCCOc1ccc2ccc(=O)oc2c1
inhibition [1]: 22%

O=c1ccc2ccc(OCCCCCCCCn3cnc4ccccc43)cc2o1
inhibition [1]: 46.1%

CCCCOc1cc(=O)oc2ccccc12
inhibition [1]: 14.5%

COc1ccc2c(C)cc(=O)oc2c1
inhibition [1]: 2.13%

Cc1cc(=O)oc2cc(OCCCCCCn3ccnc3C)ccc12
pIC50 [4]: 5.20
inhibition [1]: 89.5%

Cc1cc(=O)oc2cc(OCCCCCCBr)ccc12
inhibition [1]: -2.34%

O=c1ccc2ccc(OCCCCCCSc3cccc(O)c3)cc2o1
inhibition [1]: 13.8%

CCCOc1cc(=O)oc2ccccc12
inhibition [1]: 9.48%

Cc1cc(=O)oc2cc(OCCCCCCn3cncn3)ccc12
inhibition [1]: 25.2%

O=c1ccc2ccc(OCCCCn3cnc4ccccc43)cc2o1
inhibition [1]: 35.1%

O=c1ccc2ccc(OCCCn3cnc4ccccc43)cc2o1
inhibition [1]: 27.2%

O=c1ccc2ccc(OCCBr)cc2o1
inhibition [1]: 0.13%

C=C(C)COc1ccc2c(C)cc(=O)oc2c1
inhibition [1]: 9.37%

O=c1ccc2ccc(OCCCCBr)cc2o1
inhibition [1]: 2.59%

C=CCOc1cc(=O)oc2ccccc12
inhibition [1]: 2.46%

O=c1ccc2ccc(OCCCCCCn3cncn3)cc2o1
inhibition [1]: 39.2%
